Entries after “also recorded” stand apart in the source; their conditions may differ.
What was measured:
[1] = tested on: Multiple HSV-2 (including 186); conditions: Vero, multiple HSV-2 isolates including 186; ref [32], [33]; cited from earlier work
HIV-1 virus = assay: Anti-HIV activity: Jurkat cells infected with HIV-1, MTT assay and RT assay; format: cell-based; conditions: 1 μg/mL or 5 μg/mL, compared with DMSO and AZT
HSV-2 186 = assay: Viral replication yield reduction assay; format: cell-based, herpes simplex virus type-2 (HSV-2); conditions: selectivity index, Vero
[2] = target: human serum albumin (HSA) (Homo sapiens, UniProt P02768); assay: Fluorescence titration with HSA; format: binding
HSA = conditions: betulinic acid 0.01−0.1 mM, HSA 0.025 mM, fluorescence excitation at 285 nm; ref [34]; cited from earlier work
[3] = cited from earlier work
Vero cells = assay: Cytotoxicity in Vero cells

human serum albumin (HSA), sequence (P02768 25-609): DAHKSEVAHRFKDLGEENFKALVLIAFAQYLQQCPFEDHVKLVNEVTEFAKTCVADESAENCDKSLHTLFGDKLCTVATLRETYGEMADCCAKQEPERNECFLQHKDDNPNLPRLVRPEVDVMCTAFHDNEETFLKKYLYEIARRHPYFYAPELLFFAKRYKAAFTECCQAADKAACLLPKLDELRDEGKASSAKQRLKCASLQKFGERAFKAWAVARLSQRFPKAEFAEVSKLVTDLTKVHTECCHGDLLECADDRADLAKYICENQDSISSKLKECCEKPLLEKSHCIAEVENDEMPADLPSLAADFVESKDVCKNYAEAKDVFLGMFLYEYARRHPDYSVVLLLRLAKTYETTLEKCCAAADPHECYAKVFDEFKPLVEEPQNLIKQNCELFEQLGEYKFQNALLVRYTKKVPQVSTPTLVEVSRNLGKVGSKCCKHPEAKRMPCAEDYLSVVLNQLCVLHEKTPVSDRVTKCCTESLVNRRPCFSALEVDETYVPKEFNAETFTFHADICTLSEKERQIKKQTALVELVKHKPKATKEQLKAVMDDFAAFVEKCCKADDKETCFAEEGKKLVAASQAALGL

## Nc1nc2c(ncn2COCCO)c(=O)[nH]1 [Acyclovir]
[1]
  IC50: 100 to 10000 nM

## C=C(C)[C@@H]1CC[C@]2(C(=O)O)CC[C@]3(C)[C@H](CC[C@@H]4[C@@]5(C)CC[C@H](O)C(C)(C)[C@@H]5CC[C@]43C)[C@@H]12 [Compound 1, 3β-hydroxy-lup-20(29)-en-28-oic acid]
HIV-1 virus
  inhibitory activity of HIV-1 RT (in words): no inhibitory activity
HSV-2 186
  SI: > 62.5
[2]; Kd (285 nm), fluorescence excitation at 285 nm
  Kd: 4500 nM
[2]; Kd (295 nm), fluorescence excitation at 295 nm
  Kd: 1300 nM
HSA
  binding constant with HSA: 1.685e+06 M⁻¹
[3]; 25 °C, ref [23]
  solubility in DMSO: 5 % (w/v)
  solubility in ethanol: 1 % (w/v)
[3]; room temperature, ref [22]
  solubility in water: about 0.02 μg mL^−1
Vero cells
  cellular cytotoxicity (in words): low cytotoxicity; also recorded: minimal cellular cytotoxicity

Reference: publication PMC4494873 (Bioorganic & medicinal chemistry letters, 2015)
